Results from article PMC10175918 (Communications Biology, 2023).
Read-outs that look alike come from different tables or passages of the source.

How the values were obtained:
Assay in all cases: TGFα-shedding assay-based GPCR screening with chimeric Gα subunit proteins
Assay type in all cases: cell-based
348 GPCRs [1] = biological target: T1, 348 GPCRs (Homo sapiens, UniProt O95977); conditions: 10µM, Favipiravir 100μM
T1 sequence (O95977 1-384): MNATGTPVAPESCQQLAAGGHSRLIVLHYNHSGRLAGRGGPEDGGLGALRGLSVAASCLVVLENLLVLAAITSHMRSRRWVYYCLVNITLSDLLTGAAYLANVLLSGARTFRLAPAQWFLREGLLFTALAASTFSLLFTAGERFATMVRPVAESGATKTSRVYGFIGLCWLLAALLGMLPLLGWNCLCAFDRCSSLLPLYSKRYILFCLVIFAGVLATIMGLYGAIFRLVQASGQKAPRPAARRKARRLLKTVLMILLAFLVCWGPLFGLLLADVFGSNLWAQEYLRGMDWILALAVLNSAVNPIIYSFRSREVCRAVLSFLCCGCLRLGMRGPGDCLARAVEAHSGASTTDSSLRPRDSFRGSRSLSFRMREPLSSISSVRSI

348 GPCRs [2] = biological target: 348 GPCRs (Homo sapiens, UniProt Q96LA9); conditions: 10µM, Favipiravir 100μM
348 GPCRs [3] = biological target: T2, 348 GPCRs (Homo sapiens, UniProt P24530); conditions: 10µM, Favipiravir 100μM
T2 construct: expressed in transfected cells; host or cells: HEK293A
T2 sequence (P24530 27-442): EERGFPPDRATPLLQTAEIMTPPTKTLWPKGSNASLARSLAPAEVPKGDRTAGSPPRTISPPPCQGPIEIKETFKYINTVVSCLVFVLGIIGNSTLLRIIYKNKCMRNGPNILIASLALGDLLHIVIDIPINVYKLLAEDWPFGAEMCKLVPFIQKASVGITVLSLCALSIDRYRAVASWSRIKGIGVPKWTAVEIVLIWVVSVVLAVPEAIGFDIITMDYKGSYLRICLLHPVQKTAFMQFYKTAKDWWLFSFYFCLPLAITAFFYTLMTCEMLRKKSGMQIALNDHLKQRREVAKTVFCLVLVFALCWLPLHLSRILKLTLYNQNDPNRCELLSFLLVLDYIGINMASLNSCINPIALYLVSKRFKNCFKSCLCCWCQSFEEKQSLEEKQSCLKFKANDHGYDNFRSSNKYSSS

348 GPCRs [4] = biological target: T3, 348 GPCRs (Homo sapiens, UniProt Q9Y5X5); conditions: 10µM, Favipiravir 100μM
T3 construct: expressed in transfected cells; host or cells: HEK293A

348 GPCRs [5] = biological target: T4, 348 GPCRs (Homo sapiens, UniProt Q9BXC0); conditions: 10µM, Favipiravir 100μM
T4 construct: expressed in transfected cells; host or cells: HEK293A

348 GPCRs [6] = biological target: T5, 348 GPCRs (Homo sapiens, UniProt P30556); conditions: 10µM, Favipiravir 100μM
T5 construct: expressed in transfected cells; host or cells: HEK293A
T5 sequence (P30556 1-359): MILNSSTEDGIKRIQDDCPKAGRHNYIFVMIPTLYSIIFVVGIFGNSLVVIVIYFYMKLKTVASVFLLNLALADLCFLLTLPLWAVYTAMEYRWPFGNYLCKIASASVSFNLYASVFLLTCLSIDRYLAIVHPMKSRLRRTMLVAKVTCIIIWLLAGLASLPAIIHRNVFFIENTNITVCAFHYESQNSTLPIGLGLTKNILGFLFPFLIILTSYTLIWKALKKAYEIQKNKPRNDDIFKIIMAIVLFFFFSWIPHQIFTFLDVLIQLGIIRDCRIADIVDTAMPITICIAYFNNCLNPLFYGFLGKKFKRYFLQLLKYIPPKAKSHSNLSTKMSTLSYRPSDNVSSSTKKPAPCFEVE

348 GPCRs [7] = biological target: 348 GPCRs (Homo sapiens, UniProt P14416); conditions: 10µM, Favipiravir 100μM
348 GPCRs [8] = biological target: T6, 348 GPCRs (Homo sapiens, UniProt P04201)
T6 construct: expressed in transfected cells; host or cells: HEK293A
T6 sequence (P04201 1-325): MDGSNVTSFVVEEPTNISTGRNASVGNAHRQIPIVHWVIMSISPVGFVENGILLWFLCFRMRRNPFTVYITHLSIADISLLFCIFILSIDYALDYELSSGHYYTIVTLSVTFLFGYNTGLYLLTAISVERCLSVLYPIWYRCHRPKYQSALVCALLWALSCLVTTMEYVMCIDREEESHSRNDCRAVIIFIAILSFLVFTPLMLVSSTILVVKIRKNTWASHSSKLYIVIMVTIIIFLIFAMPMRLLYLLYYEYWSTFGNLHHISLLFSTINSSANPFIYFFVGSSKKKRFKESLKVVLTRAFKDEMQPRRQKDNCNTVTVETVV

348 GPCRs [9] = biological target: T7, 348 GPCRs (Homo sapiens, UniProt Q96RI9); conditions: 10µM, Favipiravir 100μM
T7 construct: expressed in transfected cells; host or cells: HEK293A
T7 sequence (Q96RI9 1-348): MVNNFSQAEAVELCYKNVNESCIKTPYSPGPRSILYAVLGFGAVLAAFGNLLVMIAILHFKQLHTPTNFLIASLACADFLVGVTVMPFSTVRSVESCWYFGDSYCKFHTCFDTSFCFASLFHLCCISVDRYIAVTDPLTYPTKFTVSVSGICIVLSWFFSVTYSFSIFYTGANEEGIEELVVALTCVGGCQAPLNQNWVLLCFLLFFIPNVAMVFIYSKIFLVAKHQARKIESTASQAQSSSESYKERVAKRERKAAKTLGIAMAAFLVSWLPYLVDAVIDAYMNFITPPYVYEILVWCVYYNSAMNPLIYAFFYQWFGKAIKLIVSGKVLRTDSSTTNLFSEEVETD

[10] = S1PR4 (sphingosine-1-phosphate receptor 4), read-out: % GPCR activation compared to TPA
[11] = MRGPRX4 (MAS-related GPR, member X4), read-out: % GPCR activation compared to TPA
[12] = MRGX4 (MAS-related GPR, member X4), read-out: % GPCR activation compared to TPA
[13] = EDNRB (endothelin receptor type B), read-out: % GPCR activation compared to TPA
[14] = NPFF2 (neuropeptide FF receptor 2), read-out: % GPCR activation compared to TPA
[15] = GPR81 (hydroxycarboxylic acid receptor 1), read-out: % GPCR activation compared to TPA
[16] = AGTR1 (angiotensin II receptor, type 1), read-out: % GPCR activation compared to TPA
[17] = D2 (dopamine receptor D2), read-out: % GPCR activation compared to TPA
[18] = GPCR MAS1 (MAS1 oncogene), read-out: % GPCR activation compared to TPA
[19] = TAAR9 (trace amine associated receptor 9), read-out: % GPCR activation compared to TPA
[20] = read-out: % GPCR activation compared to TPA, S1PR4 (sphingosine-1-phosphate receptor 4)
[21] = read-out: % GPCR activation compared to TPA, MRGPRX4 (MAS-related GPR, member X4)
[22] = read-out: % GPCR activation compared to TPA, MRGX4 (MAS-related GPR, member X4)
[23] = read-out: % GPCR activation compared to TPA, EDNRB (endothelin receptor type B)
[24] = read-out: % GPCR activation compared to TPA, NPFF2 (neuropeptide FF receptor 2)
[25] = read-out: % GPCR activation compared to TPA, GPR81 (hydroxycarboxylic acid receptor 1)
[26] = read-out: % GPCR activation compared to TPA, AGTR1 (angiotensin II receptor, type 1)
[27] = read-out: % GPCR activation compared to TPA, D2 (dopamine receptor D2)
[28] = read-out: % GPCR activation compared to TPA, GPCR MAS1 (MAS1 oncogene)
[29] = read-out: % GPCR activation compared to TPA, TAAR9 (trace amine associated receptor 9)

T4 sequence (Q9BXC0 whole entry): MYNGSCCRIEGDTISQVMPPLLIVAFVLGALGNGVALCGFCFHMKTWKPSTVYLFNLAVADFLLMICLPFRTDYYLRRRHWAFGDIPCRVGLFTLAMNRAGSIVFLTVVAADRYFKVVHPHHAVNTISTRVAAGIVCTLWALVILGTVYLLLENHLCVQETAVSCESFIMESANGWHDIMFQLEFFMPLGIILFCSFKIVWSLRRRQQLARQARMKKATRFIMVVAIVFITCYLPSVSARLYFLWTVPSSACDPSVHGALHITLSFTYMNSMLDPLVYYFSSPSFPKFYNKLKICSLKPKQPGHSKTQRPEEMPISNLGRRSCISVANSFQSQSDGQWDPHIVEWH
T3 sequence (Q9Y5X5 whole entry): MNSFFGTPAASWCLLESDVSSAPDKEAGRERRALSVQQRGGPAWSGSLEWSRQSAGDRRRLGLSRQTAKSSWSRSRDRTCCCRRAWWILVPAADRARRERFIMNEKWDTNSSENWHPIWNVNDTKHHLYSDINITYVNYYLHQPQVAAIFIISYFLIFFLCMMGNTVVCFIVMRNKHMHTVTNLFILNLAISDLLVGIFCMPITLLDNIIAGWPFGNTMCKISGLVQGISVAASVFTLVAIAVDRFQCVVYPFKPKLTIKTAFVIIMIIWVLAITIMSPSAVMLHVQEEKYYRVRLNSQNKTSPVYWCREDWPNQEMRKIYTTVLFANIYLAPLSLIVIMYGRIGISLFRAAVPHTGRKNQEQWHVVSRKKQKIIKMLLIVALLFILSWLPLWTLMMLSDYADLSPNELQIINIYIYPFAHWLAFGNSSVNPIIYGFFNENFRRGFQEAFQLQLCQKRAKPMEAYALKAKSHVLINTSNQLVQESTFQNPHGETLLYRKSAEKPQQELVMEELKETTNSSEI
348 GPCRs (Homo sapiens, UniProt P14416), sequence (P14416 whole entry): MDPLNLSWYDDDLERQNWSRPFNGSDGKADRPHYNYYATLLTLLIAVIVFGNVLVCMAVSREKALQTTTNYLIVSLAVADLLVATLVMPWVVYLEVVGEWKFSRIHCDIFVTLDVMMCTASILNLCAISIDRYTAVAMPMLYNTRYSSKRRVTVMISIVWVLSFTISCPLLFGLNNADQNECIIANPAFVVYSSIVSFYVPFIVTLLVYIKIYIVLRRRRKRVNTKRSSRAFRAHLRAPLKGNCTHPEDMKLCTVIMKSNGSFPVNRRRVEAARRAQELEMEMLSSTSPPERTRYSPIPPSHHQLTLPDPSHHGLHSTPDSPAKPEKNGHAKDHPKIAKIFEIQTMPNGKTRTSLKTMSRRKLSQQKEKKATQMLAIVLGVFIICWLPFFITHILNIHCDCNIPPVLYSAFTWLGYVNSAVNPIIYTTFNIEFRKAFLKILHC
348 GPCRs (Homo sapiens, UniProt Q96LA9), sequence (Q96LA9 whole entry): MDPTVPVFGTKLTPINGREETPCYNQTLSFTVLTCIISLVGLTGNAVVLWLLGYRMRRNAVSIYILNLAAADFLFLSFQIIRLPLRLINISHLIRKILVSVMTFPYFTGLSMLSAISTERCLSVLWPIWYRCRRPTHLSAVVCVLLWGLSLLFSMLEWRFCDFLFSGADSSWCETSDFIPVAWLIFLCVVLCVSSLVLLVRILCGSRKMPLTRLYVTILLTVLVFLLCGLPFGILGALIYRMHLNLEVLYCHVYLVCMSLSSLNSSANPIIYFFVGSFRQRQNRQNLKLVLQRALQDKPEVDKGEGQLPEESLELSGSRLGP

Row | SMILES | activation at 10 µM (348 GPCRs [1]; [10]) [%] | activation at 100 µM (348 GPCRs [2]; [11]) [%] | activation at 100 µM (348 GPCRs [2]; [12]) [%] | activation at 100 µM (348 GPCRs [3]; [13]) [%] | activation at 10 µM (348 GPCRs [4]; [14]) [%] | activation at 100 µM (348 GPCRs [5]; [15]) [%] | activation at 10 µM (348 GPCRs [6]; [16]) [%] | activation at 100 µM (348 GPCRs [7]; [17]) [%] | activation at 10 µM (348 GPCRs [8]; [18]) [%] | activation at 100 µM (348 GPCRs [9]; [19]) [%] | activation at 10 µM (348 GPCRs [1]; [20]) [%] | activation at 100 µM (348 GPCRs [2]; [21]) [%] | activation at 100 µM (348 GPCRs [2]; [22]) [%] | activation at 100 µM (348 GPCRs [3]; [23]) [%] | activation at 10 µM (348 GPCRs [4]; [24]) [%] | activation at 100 µM (348 GPCRs [5]; [25]) [%] | activation at 10 µM (348 GPCRs [6]; [26]) [%] | activation at 100 µM (348 GPCRs [7]; [27]) [%] | activation at 10 µM (348 GPCRs [8]; [28]) [%] | activation at 100 µM (348 GPCRs [9]; [29]) [%] | further results
1 | N#C[C@@]1(c2ccc3c(N)ncnn23)O[C@H](CO)[C@@H](O)[C@H]1O [GS441524] | -3.24 | -1.84 | 0.701 | -4.24 | -0.904 | 1.05 | 1.08 | 4.14 | -19.1 | -2.32 |  |  |  |  |  |  |  |  |  |  | 
2 | CC(C)OC(=O)[C@H](C)N[P@](=O)(OC[C@H]1O[C@@H](n2ccc(=O)[nH]c2=O)[C@](C)(F)[C@@H]1O)Oc1ccccc1 [sofosbuvir] |  |  |  |  |  |  |  |  |  |  | -2.24 | -0.776 | -14.4 | -2.57 | -0.549 | -7.92 | 2.52 | -0.334 | 2.48 | -1.74 | 
3 | CCC(CC)COC(=O)[C@H](C)N[P@](=O)(OC[C@H]1O[C@@](C#N)(c2ccc3c(N)ncnn23)[C@H](O)[C@@H]1O)Oc1ccccc1 [remdesivir] |  |  |  |  |  |  |  |  |  |  | -2.69 | -0.071 | -1.24 | -2.2 | -0.846 | 2.29 | 1.2 | 6.53 | 21.3 | 0.293 | 
4 | CC(C)C(=O)OC[C@H]1O[C@@H](n2ccc(NO)nc2=O)[C@H](O)[C@@H]1O [molnupiravir] | -2.08 | -2.9 | -28.1 | -3.6 | -0.917 | 0.933 | -0.396 | -0.0472 | -15.3 | -1.9 |  |  |  |  |  |  |  |  |  |  | 
5 | NC(=O)c1nc(F)cnc1O [favipiravir, 6-fluoro-3-hydroxy-2-pyrazinecarboxamide] | -3.38 | -1.47 | -11.1 | -3.11 | -0.818 | 0.102 | 0.178 | 4.37 |  | -0.821 |  |  |  |  |  |  |  |  |  |  | activation at 100 µM (348 GPCRs [8]; GPCR MAS1 (MAS1 oncogene), 100μM, read-out: % GPCR activation compared to TPA): -7.84%
